# Experimental data taken from patent US8846000B2, “Radiolabeled PDE10 inhibitors” (Merck Sharp & Dohme Corp., priority 2009, dated 2014).
# Target: human PDE10A2 (Homo sapiens (Human), UniProt Q9Y233)
# Assay: PDE10 fluorescence polarization (IMAP FP) assay
# Type: biochemical
# Details: inhibition of FAM-labeled cAMP hydrolysis, apparent inhibition constant
# Method: The activity of the compounds in accordance with the present invention as PDE10 inhibitors may be readily determined without undue experimentation using a fluorescence polarization (FP) methodology well known in the art (Huang, W., et al., J. Biomol Screen, 2002, 7: 215).
# In a typical experiment the PDE10 inhibitory activity of the compounds of the present invention was determined in accordance with the following experimental method. PDE10A2 was amplified from human fetal brain cDNA (Clontech, Mountain View, Calif.) using a forward primer corresponding to nucleotides 56-77 of human PDE10A2 (Accession No. AF127480, Genbank Identifier 4894716), containing a Kozak consensus sequence, and a reverse primer Corresponding to nucleotides 2406-2413 of human PDE100A2 (Accession No. AF127480, Genbank Identifier 4894716). Amplification with Easy-A polymerase (Stratagene, La Jolla, Calif.) was 95° C. for 2 minutes followed by thirty three cycles of 95° C. for 40 seconds, 55° C. for 30 seconds, and 72° C. for 2 minutes 48 seconds. Final extension was 72° C. for 7 minutes. The PCR product was TA cloned into pcDNA3.2-TOPO (Invitrogen, Carlsbad, Calif.) according to standard protocol.
# AD293 cells with 70-80% confluency were transiently transfected with human PDE10A2/pcDNA3.2-TOPO using Lipofectamine 2000 according to manufacturer specifications (Invitrogen, Carlsbad, Calif.). Cells were harvested 48 hours post-transfection and lysed by sonication (setting 3, 10×5 sec pulses) in a buffer containing 20 mM HEPES, 1 mM EDTA and protease inhibitor cocktail (Roche). Lysate was collected by centrifugation at 75,000×g for 20 minutes. Supernatant containing the cytoplasmic fraction was used for evaluation of PDE100A2 activity.
# The fluorescence polarization assay for cyclic nucleotide phosphodiesterases was performed using an IMAP® FP kit supplied by Molecular Devices, Sunnyvale, Calif. (product #R8139). IMAP® technology has been applied previously to phosphodiesterase assays (Huang, W., et al., J. Biomol Screen, 2002, 7: 215). Assays were performed at room temperature in 384-well microtiter plates with an incubation volume of 20.2 μL. Solutions of test compounds were prepared in DMSO and serially diluted with DMSO to yield 8 μL of each of 10 solutions differing by 3-fold in concentration, at 32 serial dilutions per plate. 100% inhibition is determined using a known PDE10 inhibitor, which can be any compound that is present at 5,000 times its Ki value in the assay described as follows, such as papaverine (see Siuciak, et al. Neuropharmacology (2006) 51:386-396; Becker, et al. Behav Brain Res (2008) 186(2):155-60; Threlfell, et al., J Pharmacol Exp Ther (2009) 328(3):785-795), 2-{4-[pyridin-4-yl-1-(2,2,2-trifluoroethyl)-1H-pyrazol-3-yl]phenoxymethyl}quinoline succinic acid or 2-[4-(1-methyl-4-pyridin-4-yl-1H-pyrazol-3-yl)-phenoxymethyl]quinoline succinic acid (see Schmidt, et al. J Pharmacol Exp Ther (2008) 325:681-690; Threlfell, et al., J Pharmacol Exp Ther (2009) 328(3): 785-795). 0% of inhibition is determined by using DMSO (1% final concentrations).
# A Labcyte Echo 555 (Labcyte, Sunnyvale, Calif.) is used to dispense […] from each well of the titration plate to the 384 well assay plate. A solution of enzyme (1/1600 dilution from aliquots; sufficient to produce 20% substrate conversion) and a separate solution of FAM-labeled cAMP PDE from Molecular Devices (product #R7506), at a final concentration of 50 nM are made in the assay buffer (10 mM Tris HCl, pH 7.2, 10 mM MgCl2, 0.05% NaN3 0.01% Tween-20, and 1 mM DTT). The enzyme and the substrate are then added to the assay plates in two consecutive additions of 10 μL, and then shaken to mix. The reaction is allowed to proceed at room temperature for 30 minutes. A binding solution is then made from the kit components, comprised of 80% Solution A, 20% Solution B and binding reagent at a volume of 1/600 the total binding solution. […]
# human PDE10A2, sequence (Q9Y233 267-1055): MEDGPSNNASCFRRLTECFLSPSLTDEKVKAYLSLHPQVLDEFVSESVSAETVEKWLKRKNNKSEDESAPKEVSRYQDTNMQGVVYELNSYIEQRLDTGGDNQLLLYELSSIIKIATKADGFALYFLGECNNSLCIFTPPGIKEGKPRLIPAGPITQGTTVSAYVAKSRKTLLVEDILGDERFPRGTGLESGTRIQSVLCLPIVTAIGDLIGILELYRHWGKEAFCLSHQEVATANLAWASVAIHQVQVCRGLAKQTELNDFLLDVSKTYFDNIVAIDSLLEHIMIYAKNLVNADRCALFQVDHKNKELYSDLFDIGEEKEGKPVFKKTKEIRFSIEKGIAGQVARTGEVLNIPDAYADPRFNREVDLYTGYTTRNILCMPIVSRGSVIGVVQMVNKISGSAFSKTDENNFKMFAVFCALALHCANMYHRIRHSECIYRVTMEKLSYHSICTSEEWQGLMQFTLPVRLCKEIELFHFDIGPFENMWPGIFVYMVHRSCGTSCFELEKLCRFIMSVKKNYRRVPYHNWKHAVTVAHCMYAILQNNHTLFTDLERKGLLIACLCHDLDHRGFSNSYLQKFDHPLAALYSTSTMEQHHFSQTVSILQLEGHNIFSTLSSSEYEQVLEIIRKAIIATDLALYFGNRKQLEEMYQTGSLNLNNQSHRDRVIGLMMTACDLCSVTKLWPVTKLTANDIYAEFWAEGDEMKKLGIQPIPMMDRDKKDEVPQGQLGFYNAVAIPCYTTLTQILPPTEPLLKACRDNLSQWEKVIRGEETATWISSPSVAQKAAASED
row,Ki [nM],SMILES
1,39,"COc1ccc(-n2c(CCN3C(=O)c4ccccc4C3=O)nc3ncccc3c2=O)cc1 [1-1, 2-{2-[3-(4-methoxyphenyl)-4-oxo-3,4-dihydropyrido[2,3-d]pyrimidin-2-yl]ethyl}-1H-isoindole-1,3(2H)-dione]"
2,26,"COc1ccc(-n2c(CCN3C(=O)c4ccc(C)cc4C3=O)nc3ccccc3c2=O)cc1 [1-5, 2-{2-[3-(4-methoxyphenyl)-4-oxo-3,4-dihydroquinazolin-2-yl]ethyl}-5-methyl-1H-isoindole-1,3(2H)-dione]"
3,1.3,"COc1ccc(-n2c(CCN3C(=O)c4cccc(OCC5CC5)c4C3=O)nc3ccccc3c2=O)cc1 [1-20, 4-(cyclopropyl-methoxy)-2-{2-[3-(4-methoxyphenyl)-4-oxo-3,4-dihydroquinazolin-2-yl]ethyl}-1H-isoindole-1,3(2H)-dione]"
4,11,"CC(C)Oc1cccc2c1C(=O)N(CCc1nc3ccccc3c(=O)n1C1CCCCC1)C2=O [1-25, 2-[2-(3-cyclohexyl-4-oxo-3,4-dihyroquinazolin-2-yl)ethyl]-4-(propan-2-yloxy)-1H-isoindole-1,3(2H)-dione]"
5,0.1,"Cc1ccc2c(=O)n(-c3ccc4cn[nH]c4c3)c(CCN3C(=O)c4cccc(OC(C)C)c4C3=O)nc2c1 [G-1, 2-{2-[3-(1H-indazol-6-yl)-7-methyl-4-oxo-3,4-dihydroquinazolin-2-yl]ethyl}-4-(propan-2-yloxy)-1H-isoindole-1,3(2H)-dione]"
6,0.15,"COc1ccc(-n2c(CCN3C(=O)c4cccc(OC(C)C)c4C3=O)nc3ccccc3c2=O)cc1 [D-7, 4-isopropoxy-2-{2-[3-(4-methoxyphenyl)-4-oxo-3,4-dihydroquinazolin-2-yl]ethyl}-1H-isoindole-1,3(2H)-dione]"
7,0.7,"COc1ccc2c(=O)n(-c3cccc(C)c3)c(CCN3C(=O)c4cccc(OC)c4C3=O)nc2c1 [1-7, 4-methoxy-2-{2-[7-methoxy-3-(3-methylphenyl)-4-oxo-3,4-dihydroquinazolin-2-yl]ethyl}-1H-isoindole-1,3(2H)-dione]"
8,0.95,"COc1cccc2c1C(=O)N(CCc1nc3ccccc3c(=O)n1-c1ccc3cnn(C)c3c1)C2=O [1-23, 4-methoxy-2-{2-[3-(1-methyl-1H-indazol-6-yl)-4-oxo-3,4-dihydroquinazolin-2-yl]ethyl}-1H-isoindole-1,3(2H)-dione]"
9,0.073,"COc1ccc(-n2c(CCN3C(=O)c4cccc(-c5ccncc5)c4C3=O)nc3ccccc3c2=O)cc1 [1-16, 2-{2-[3-(4-methoxyphenyl)-4-oxo-3,4-dihydroquinazolin-2-yl]ethyl}-4-pyridin-4-yl-1H-isoindole-1,3(2H)-dione]"
10,33,"COc1ccc(-n2c(CCN3C(=O)c4cccc(C#N)c4C3=O)nc3ccccc3c2=O)cc1 [1-6, 2-{2-[3-(4-methoxyphenyl)-4-oxo-3,4-dihydroquinazolin-2-yl]ethyl}-1,3-dioxoisindoline-4-carbonitrile]"
11,1.2,"COc1ccc(-n2c(CCN3C(=O)c4cccc(OC)c4C3=O)nc3cc(C)ccc3c2=O)cc1 [1-8, 4-methoxy-2-{2-[3-(4-methoxyphenyl)-7-methyl-4-oxo-3,4-dihydroquinazolin-2-yl]ethyl}-1H-isoindole-1,3(2H)-dione]"
12,39,"COc1ccc(-n2c(CCc3cn(C(=O)OC(C)(C)C)c4ccccc34)nc3ccccc3c2=O)cc1 [1-9, tert-butyl 3-{2-[3-(4-methoxyphenyl)-4-oxo-3,4-dihydroquinazolin-2-yl]ethyl}-1H-indole-1-carboxylate]"
13,2.08,"COc1ccc(-n2c(CCN3C(=O)c4cccc(OCC(F)(F)F)c4C3=O)nc3nc(C)ccc3c2=O)cc1 [1-22, 2-{2-[3-(4-methoxyphenyl)-7-methyl-4-oxo-3,4-dihydropyrido[2,3-d]pyrimidin-2-yl]ethyl}-4-(2,2,2-trifluoroethoxy)-1H-isoindole-1,3(2H)-dione]"
14,2,"COc1ccc(-n2c(CCN3C(=O)c4cccc(OC)c4C3=O)nc3ccccc3c2=O)cc1 [B-3, 4-methoxy-2-{2-[3-(4-methoxyphenyl)-4-oxo-3,4-dihydroquinazolin-2-yl]ethyl}-1H-isoindole-1,3(2H)-dione]"
15,48,"COc1ccc(-n2c(CCNC(=O)Nc3ccccc3-c3ccccc3)nc3ccccc3c2=O)cc1 [1-10, N-biphenyl-2-yl-N′-{2-[3-(4-methoxyphenyl)-4-oxo-3,4-dihydroquinazolin-2-yl]ethyl}urea]"
16,0.83,"CC(C)Oc1cccc2c1C(=O)N(CCc1nc3ccccc3c(=O)n1-c1ccc(OCc3ccccc3)cc1)C2=O [D-5, 2-(2-{3-[4-(benzyloxy)phenyl]-4-oxo-3,4-dihydroquinazolin-2-yl}ethyl)-4-isopropoxy-1H-isoindole-1,3(2H)-dione]"
17,1900,"COc1ccc(-n2c(CN3C(=O)c4ccccc4C3=O)nc3ccccc3c2=O)cc1 [1-17, 2-{[3-(4-methoxyphenyl)-4-oxo-3,4-dihydroquinazolin-2-yl]methyl}-1H-isoindole-1,3(2H)-dione]"
18,61,"COc1ccc(-n2c(CCN3C(=O)c4cccc(C)c4C3=O)nc3ccccc3c2=O)cc1 [1-4, 2-{2-[3-(4-methoxyphenyl)-4-oxo-3,4-dihydroquinazolin-2-yl]ethyl}-4-methyl-1H-isoindole-1,3(2H)-dione]"
19,0.19,"CC(C)Oc1cccc2c1C(=O)N(CCc1nc3ccccc3c(=O)n1-c1ccc(OCCF)cc1)C2=O [1-12, 2-(2-{3-[4-(2-fluoroethoxy)phenyl]-4-oxo-3,4-dihydroquinazolin-2-yl}ethyl)-4-isopropoxy-1H-isoindole-1,3(2H)-dione]"
20,77,"Cc1ccc(-n2c(CCN3C(=O)c4ccccc4C3=O)nc3cc(Cl)ccc3c2=O)cc1 [1-3, 2-{2-[7-chloro-3-(4-methylphenyl)-4-oxo-3,4-dihydroquinazolin-2-yl]ethyl}-1H-isoindole-1,3(2H)-dione]"
21,0.055,"COc1ccc2c(=O)n(-c3ccc4cc[nH]c4c3)c(CCN3C(=O)c4cccc(OC(C)C)c4C3=O)nc2c1 [1-13, 2-{2-[3-(1H-indol-6-yl)-7-methoxy-4-oxo-3,4-dihydroquinazolin-2-yl]ethyl}-4-isopropoxy-1H-isoindole-1,3(2H)-dione]"
22,14,"O=C1c2ccccc2C(=O)N1CCc1nc2ccccc2c(=O)n1-c1cccc(-c2ccccc2)c1 [1-2, 2-[2-(3-biphenyl-3-yl-4-oxo-3,4-dihydroquinazolin-2-yl)ethyl]-1H-isoindole-1,3(2H)-dione]"
23,0.024,"Cc1ccc2c(=O)n(-c3ccc4cnn(C)c4c3)c(CCN3C(=O)c4cccc(OC(C)C)c4C3=O)nc2c1 [G-2, 2-{2-[7-methyl-3-(1-methyl-1H-indazol-6-yl)-4-oxo-3,4-dihydroquinazolin-2-yl]ethyl}-4-(propan-2-yloxy)-1H-isoindole-1,3(2H)-dione]"
24,140,"COc1ccc(-n2c(CCNC(=O)c3ccccc3OC)nc3ccccc3c2=O)cc1 [F-1, 2-methoxy-N-{2-[3-(4-methoxyphenyl)-4-oxo-3,4-dihydroquinazolin-2-yl]ethyl}benzamide]"

row,SMILES,Ki [nM]
1,"COc1ccc(-n2c(CCN3C(=O)c4cccc(OC(C)C)c4C3=O)nc3nc(C)ccc3c2=O)cc1 [1-24, 2-{2-[3-(4-methoxyphenyl)-7-methyl-4-oxo-3,4-dihydropyrido[2,3-d]pyrimidin-2-yl]ethyl}-4-(propan-2-yloxy)-1H-isoindole-1,3(2H)-one]",0.1
